Reference: patent US20240217936A1, “5-BENZY[…] AND PREPARATION METHOD THEREFOR AND USE THEREOF” (WEST CHINA HOSPITAL, SICHUAN UNIVERSITY, priority 2021, published 2024)
Counter-ions that a name gives are not always drawn.

What was measured:
[1] = Degradation of prodrug in rat plasma (release of dexmedetomidine, HPLC); format: in vitro ADME; settings: 37° C.
Protocol: The test prodrug was formulated as a 1 mg/mL of physiological saline solution, and then 100 μL of the prodrug solution was added to 900 μL of rat plasma. The test solution was vortexed for 30 s before incubation at 37° C. 50 μL of drug-containing plasma was collected at 0.5 min, 1 min, 2 min, 3 min, 5 min, 10 min, 15 min, 20 min, 30 min, and 60 min, respectively, to which was immediately added 150 μL of acetonitrile to terminate the enzymatic reaction, followed by adding the solution of internal standard telmisartan in methanol (30 μL, 20 μg/mL). Then, the resultant solution was centrifuged at 20000 rpm and 4° C. for 10 min. 100 μL of the supernatant was injected for detection by HPLC, and the concentration of dexmedetomidine was determined by an internal standard method. The degradation rate of the prodrug was calculated based on the concentration of dexmedetomidine. The chromatographic conditions are: Swell XDB C18 column (150 mm×4.6 mm, 5 μm); column temperature 30° C.; using gradient elution (see Table 1), mobile phase A: methanol, mobile phase B: 0.1% trifluoroacetic acid in water, and mobile phase C: acetonitrile; detection wavelength: 220 nm; flow rate: 1.0 mL/min; injection volume: 30 μL; retention time: 4.7 minutes for dexmedetomidine and 6.7 minutes for internal standard telmisartan. The linear range of dexmedetomidine: 2.5-100 μg/mL. Instruments: Waters 2695 high-performance liquid chromatograph, Waters 2996 photodiode array detector.

[2] = test system: Male SD rats; experiment: Blood pressure change after tail vein injection (mean arterial pressure); settings: dosage 2× ED50, injection within 15 seconds, 60 min recording, rats under isoflurane
Protocol: Male SD rats weighing 250-300 g were randomly divided into groups, with 10 rats in each group. General anesthesia was maintained by inhaling isoflurane. By intubating via femoral artery, blood pressure was monitored using the BL-420N biological signal collection and analysis system. minutes after blood pressure stabilization, the baseline mean arterial pressure (MAP0) was measured. Subsequently, the physiological saline solution of each test drug was injected via the tail vein (the dosage of each drug was the same as that in Experiment example 2, with a unified injection […] volume of 1 mL). […] All prodrug molecules were injected within 15 seconds. After injection of each drug, the change in blood pressure was continuously recorded for 60 min. […] The difference MAPΔ+ between the baseline mean arterial pressure (MAP0) and the highest mean arterial pressure (MAPmax) during the 60 min measurement time was calculated; the difference MAPΔ− between the baseline mean arterial pressure (MAP0) and the lowest mean arterial pressure (MAPmin) during the 60 min measurement time was also obtained; both of the difference values were used to calculate the maximum increase rate of mean arterial pressure +Δ%=MAPΔ+/MAP0*100% and the maximum decrease rate of mean arterial pressure −Δ%=MAPΔ−/MAP0*100%, respectively. The maximum increase rate of mean arterial pressure +Δ% and the maximum decrease rate −Δ% reflect the degree of blood pressure change that the body experienced after administration. The larger the value, the greater the blood pressure change that the body experienced.

[3] = test system: Male SD rats; experiment: Hypnotic effect after tail vein injection (loss of righting reflex); format: in vivo, rat; settings: for ED50: Rattus norvegicus, 50% of the dose for the disappearance of righting reflex in rats, tail vein injection; for Onset time: tail vein injection of 2× ED50, loss of righting reflex; for Onset time / Duration: rats; for Duration: tail vein injection of 2× ED50, until recovery of righting reflex
Protocol: Male SD rats, weighing 250-300 g, were randomly divided into groups, with 10 rats in each group. […] The onset times and the duration of hypnosis were recorded.

[4] = test system: Male SD rats; experiment: Sedative and hypnotic effects after oral administration (gavage, righting reflex); format: in vivo, rat; design: key to Onset time / Duration: —: Disappearance of righting reflex was not observed; settings: for Onset time / Duration: gavage, 0.16 μmoL/kg; for Onset time: disappearance of righting reflex; for Duration: until recovery of righting reflex
Protocol: Each test drug was administered by gavage, at a dosage of 0.16 μmoL/kg for each drug. After gavage, the disappearance of the righting reflex was used as a sign of the hypnotic effect induced by the drug, and the recovery of the righting reflex was used as a sign of drug failure. The onset time and duration of the drug were observed.

| Compound | Degradation rate of prodrug % ([1]; 0.5 min) | Degradation rate of prodrug % ([1]; 1 min) | Degradation rate of prodrug % ([1]; 2 min) | Degradation rate of prodrug % ([1]; 3 min) | +Δ % (The maximum increase rate of blood pressure) [2] | −Δ % (The maximum decrease rate of blood pressure) [2] | ED50 [3] | Onset time [3] | Duration [3] | Onset time [4] | Duration [4] | Degradation rate of prodrug % ([1]; 5 min) | Degradation rate of prodrug % ([1]; 10 min) | Degradation rate of prodrug % ([1]; 15 min) | Degradation rate of prodrug % ([1]; 20 min) | Degradation rate of prodrug % ([1]; 30 min) | Degradation rate of prodrug % ([1]; 60 min) | hypnotic effect by oral administration ([4]; equimolar doses, oral) |
| --- | --- | --- | --- | --- | --- | --- | --- | --- | --- | --- | --- | --- | --- | --- | --- | --- | --- | --- |
| CC(=O)OCn1cnc([C@@H](C)c2cccc(C)c2C)c1 [Compound 1-HCl] | 33% | 68% | 95% | 100% | *25 ± 12% | 43 ± 10% | 0.035 mg/kg | 3.9 ± 1.5 min | 42 ± 9 min | 15 ± 6 min | 17 ± 8 min |  |  |  |  |  |  |  |
| Cc1cccc([C@H](C)c2cn(C(=O)OCC(C)C)cn2)c1C [Compound 4-HCl] | 31% | 86% | 97% | 100% | 34 ± 14% | 38 ± 9% | 0.038 mg/kg | 2.3 ± 0.9 min | 44 ± 8 min | 14 ± 8 min | 20 ± 13 min | 100% |  |  |  |  |  |  |
| Cc1cccc([C@H](C)c2cn(COC(=O)OC(C)C)cn2)c1C [Compound 7] |  |  |  |  |  |  |  |  |  | 9 ± 4 min | 22 ± 8 min |  |  |  |  |  |  |  |
| CCC(=O)OCn1cnc([C@@H](C)c2cccc(C)c2C)c1 [Compound 10] |  |  |  |  |  |  |  |  |  | 13 ± 6 min | 15 ± 7 min |  |  |  |  |  |  |  |
| Cc1cccc([C@H](C)c2cn(COP(=O)(OC(C)(C)C)OC(C)(C)C)cn2)c1C [Compound 12, (S)-(4-(1-(2,3-dimethylphenyl)ethyl)-1H-imidazo-1-yl)methyl di-tert-butyl phosphate] |  |  |  |  |  |  |  |  |  | 16 ± 7 min | 11 ± 4 min |  |  |  |  |  |  |  |
| COC(=O)OCn1cnc([C@@H](C)c2cccc(C)c2C)c1 [Compound 13] |  |  |  |  |  |  |  |  |  | 11 ± 5 min | 21 ± 9 min |  |  |  |  |  |  |  |
| CC(=O)OC(C)n1cnc([C@@H](C)c2cccc(C)c2C)c1 (stereo partly shown) [Compound 17] |  |  |  |  |  |  |  |  |  | 23 ± 5 min | 9 ± 4 min |  |  |  |  |  |  |  |
| COC(=O)COC(=O)OCn1cnc([C@@H](C)c2cccc(C)c2C)c1 [Compound 23-HCl] | 23% |  |  |  | 29 ± 7% | 35 ± 8% | 0.051 mg/kg | 1.7 ± 0.4 min | 61 ± 15 min |  |  | 25% | 27% | 28% | 29% | 31% | 34% |  |
| COC(=O)COC(=O)OCn1cnc([C@@H](C)c2cccc(C)c2C)c1 [Compound 23] |  |  |  |  |  |  |  |  |  | 28 ± 5 min | 8 ± 2 min |  |  |  |  |  |  |  |
| CCOC(=O)COC(=O)OCn1cnc([C@@H](C)c2cccc(C)c2C)c1 [Compound 24-HCl] | 18% | 21% | 24% | 27% | *27 ± 12% |  | 0.03 mg/kg | 1.3 ± 0.4 min | 47 ± 7 min |  |  | 31% | 33% | 36% | 37% | 38% | 41% |  |
| COC(=O)CCC(=O)OCn1cnc([C@@H](C)c2cccc(C)c2C)c1 [Compound 25-HCl] | 51% | 56% | 59% | 64% | 31 ± 14% | 37 ± 7% | 0.041 mg/kg | 3.1 ± 0.9 min | 63 ± 15 min |  |  | 67% | 68% | 69% | 72% | 76% | 79% |  |
| Cc1cccc([C@H](C)c2cn(COP(=O)(O)O)cn2)c1C [Compound 26] | 29% | 31% | 32% | 33% | *15 ± 8% | 36 ± 8% | 0.032 mg/kg | 1.7 ± 0.3 min | 46 ± 5 min |  |  | 34% | 35% | 37% | 38% | 43% | 56% |  |
| CCOC(=O)CCC(=O)OCn1cnc([C@@H](C)c2cccc(C)c2C)c1 [Compound 27-HCl] | 52% | 58% | 66% |  | *25 ± 13% | 41 ± 9% | 0.019 mg/kg | 1.4 ± 0.5 min | 52 ± 9 min |  |  | 78% | 86% | 97% | 100% |  |  |  |
| Cc1cccc([C@H](C)c2c[nH]cn2)c1C.Cl [Dexmedetomidine hydrochloride, reference compound] |  |  |  |  |  |  | 0.018 mg/kg | 1.5 ± 0.5 min | 53 ± 11 min | — | — |  |  |  |  |  |  | could not produce a hypnotic effect |
